Results on 10 molecules are retold here after patent US12344614B2, “Benzodiazepine derivatives as GABA a GAMMA1 PAM” (Hoffmann-La Roche Inc., priority 2021, dated 2025).

pKi: −log10 of the molar value. Read-outs that look alike come from different tables or passages of the source.

The target in experiment [1] is human GABAA α1β2γ1 receptor (Homo sapiens (Human), UniProt P14867+Q8N1C3). In words: Radioligand binding assay, competition for [3H]RO7239181, membranes from HEK293F cells.
Experiment [2] has as its target h-GABA-A α2β2γ1 receptor (Homo sapiens (Human), UniProt P47869+Q8N1C3). As to the kind of experiment: Two-electrode voltage clamp electrophysiology in Xenopus oocytes expressing GABAA receptors. Format: cell-based. To be noted: for Efficacy (GABA) %: % modulation of GABA EC20 = 100*(Fold increase−1), compound at 30-fold Ki α2β2γ1; for Fold increase h-GABA-A α2β2γ1 oocyte @ 30-fold Ki: Xenopus oocytes, GABA EC20, test compound at approx. 30-fold its Ki α2β2γ1. (In general: Two-electrode voltage clamp holds a large cell at a set potential and records current.)

Broadly, the pKi is the negative decadic logarithm of the Ki, by convention in mol/L.

As to `CN1C(=O)CN=C(c2cc(O)ccc2F)c2c1ccc(Cl)c2Cl` [Example 1, 6,7-dichloro-5-(2-fluoro-5-hydroxy-phenyl)-1-methyl-3H-1,4-benzodiazepin-2-one], in experiment [1], the pKi is 8.54. The pKi in experiment [1] (read-out: Ki h-GABAA α1β2γ1, [3H]RO7239181 20-30 nM, HEK293F membranes, 1 hour at 4° C., mean of two determinations) was 8.54. Besides, in experiment [2], the “Efficacy (GABA) %” value is reported as 90% and the “Fold increase h-GABA-A α2β2γ1 oocyte @ 30-fold Ki” value was 1.90.

In turn, `Cc1ccc2c(c1Cl)C(c1cc(O)ccc1F)=NCC(=O)N2C` [Example 2, 6-chloro-5-(2-fluoro-5-hydroxy-phenyl)-1,7-dimethyl-3H-1,4-benzodiazepin-2-one] gave a pKi in experiment [1] of 8.46. Also, in experiment [2], the “Efficacy (GABA) %” value was found to be 70% and the “Fold increase h-GABA-A α2β2γ1 oocyte @ 30-fold Ki” value worked out at 1.70.

`Cc1nnc2n1-c1ccc(Cl)c(Cl)c1C(c1cc(O)ccc1F)=NC2` [Example 3, 3-(7,8-dichloro-1-methyl-4H-[1,2,4]triazolo[4,3-a][1,4]benzodiazepin-6-yl)-4-fluoro-phenol] gave a pKi in experiment [1] of 8.26. Moreover, in experiment [2], the “Efficacy (GABA) %” value was determined as 67% and the “Fold increase h-GABA-A α2β2γ1 oocyte @ 30-fold Ki” value was 1.67.

In experiment [1], `Cc1nnc2n1-c1ccc(Cl)c(Cl)c1C(c1cc(O)ccc1F)=N[C@H]2C` [Example 4, 4-fluoro-3-[(4S)-7,8-dichloro-1,4-dimethyl-4H-[1,2,4]triazolo[4,3-a][1,4]benzodiazepin-6-yl]phenol] showed a pKi of 8.47. Further, in experiment [2], the “Efficacy (GABA) %” value was 33% and the “Fold increase h-GABA-A α2β2γ1 oocyte @ 30-fold Ki” value is 1.33.

`C[C@@H]1N=C(c2cc(O)ccc2F)c2c(ccc(Cl)c2Cl)-n2ccc(=O)nc21` [Example 5, (5S)-8,9-dichloro-7-(2-fluoro-5-hydroxy-phenyl)-5-methyl-5H-pyrimido[1,2-a][1,4]benzodiazepin-3-one] had a pKi in experiment [1] of 8.48. In experiment [2], the “Efficacy (GABA) %” value was determined as 46% and the “Fold increase h-GABA-A α2β2γ1 oocyte @ 30-fold Ki” value amounted to 1.46.

Take `CN1C(=O)CN=C(c2cc(O)ccc2F)c2c1ccc(C(F)(F)F)c2Cl` [Example 8, 6-chloro-5-(2-fluoro-5-hydroxy-phenyl)-1-methyl-7-(trifluoromethyl)-3H-1,4-benzodiazepin-2-one]: in experiment [1], the pKi is 8.27. In addition, in experiment [2], the “Efficacy (GABA) %” value was determined as 75% and the “Fold increase h-GABA-A α2β2γ1 oocyte @ 30-fold Ki” value amounted to 1.75.

In experiment [1], `Cc1nnc2n1-c1ccc(C(F)(F)F)c(Cl)c1C(c1cc(O)ccc1F)=NC2` [Example 9, 3-[7-chloro-1-methyl-8-(trifluoromethyl)-4H-[1,2,4]triazolo[4,3-a][1,4]benzodiazepin-6-yl]-4-fluoro-phenol] had a pKi of 8.07. Also, in experiment [2], the “Efficacy (GABA) %” value stood at 69% and the “Fold increase h-GABA-A α2β2γ1 oocyte @ 30-fold Ki” value is reported as 1.69.

The molecule `O=c1ccn2c(n1)CN=C(c1cc(O)ccc1F)c1c-2ccc(C(F)(F)F)c1Cl` [Example 11, 8-chloro-7-(2-fluoro-5-hydroxy-phenyl)-9-(trifluoromethyl)-5H-pyrimido[1,2-a][1,4]benzodiazepin-3-one] had a pKi in experiment [1] of 8.29. Also, in experiment [2], the “Efficacy (GABA) %” value is given as 68% and the “Fold increase h-GABA-A α2β2γ1 oocyte @ 30-fold Ki” value came out at 1.68.

On to `Cc1nc2n(n1)-c1ccc(C(F)(F)F)c(Cl)c1C(c1nc(O)ccc1Cl)=N[C@H]2C` [Example 29, 5-chloro-6-[(4S)-7-chloro-2,4-dimethyl-8-(trifluoromethyl)-4H-[1,2,4]triazolo[1,5-a][1,4]benzodiazepin-6-yl]pyridin-2-ol], for which, in experiment [2], the “Efficacy (GABA) %” value came out at 70% and the “Fold increase h-GABA-A α2β2γ1 oocyte @ 30-fold Ki” value turned out to be 1.70.

As for `C[C@@H]1N=C(c2nc(O)ccc2F)c2c(ccc(C(F)(F)F)c2Cl)-n2cc(C(=O)N3CCC3)nc21` [Example 30, azetidin-1-yl-[(4S)-7-chloro-6-(3-fluoro-6-hydroxy-2-pyridyl)-4-methyl-8-(trifluoromethyl)-4H-imidazo[1,2-a][1,4]benzodiazepin-2-yl]methanone], in experiment [2], the “Efficacy (GABA) %” value is reported as 120% and the “Fold increase h-GABA-A α2β2γ1 oocyte @ 30-fold Ki” value stood at 2.20.
